Experimental data taken from paper PMC4486940, “Redox Linked Flavin Sites in Extracellular Decaheme Proteins Involved in Microbe-Mineral Electron Transfer” (Scientific Reports, 2015).

Columns and labels:
Format in all cases: binding
OmcA = molecular target: T1, OmcA (Shewanella oneidensis, UniProt Q8EG33); assay: PD10 gel-filtration co-elution, flavin fluorescence and absorbance; conditions: anaerobic, 1 mM reduced glutathione (disulfide reduced), 10 uM FMN, 20 mM HEPES pH 7.6, room temperature
T1 construct: soluble form, isolated as in earlier work
T1 sequence (Q8EG33 28-735): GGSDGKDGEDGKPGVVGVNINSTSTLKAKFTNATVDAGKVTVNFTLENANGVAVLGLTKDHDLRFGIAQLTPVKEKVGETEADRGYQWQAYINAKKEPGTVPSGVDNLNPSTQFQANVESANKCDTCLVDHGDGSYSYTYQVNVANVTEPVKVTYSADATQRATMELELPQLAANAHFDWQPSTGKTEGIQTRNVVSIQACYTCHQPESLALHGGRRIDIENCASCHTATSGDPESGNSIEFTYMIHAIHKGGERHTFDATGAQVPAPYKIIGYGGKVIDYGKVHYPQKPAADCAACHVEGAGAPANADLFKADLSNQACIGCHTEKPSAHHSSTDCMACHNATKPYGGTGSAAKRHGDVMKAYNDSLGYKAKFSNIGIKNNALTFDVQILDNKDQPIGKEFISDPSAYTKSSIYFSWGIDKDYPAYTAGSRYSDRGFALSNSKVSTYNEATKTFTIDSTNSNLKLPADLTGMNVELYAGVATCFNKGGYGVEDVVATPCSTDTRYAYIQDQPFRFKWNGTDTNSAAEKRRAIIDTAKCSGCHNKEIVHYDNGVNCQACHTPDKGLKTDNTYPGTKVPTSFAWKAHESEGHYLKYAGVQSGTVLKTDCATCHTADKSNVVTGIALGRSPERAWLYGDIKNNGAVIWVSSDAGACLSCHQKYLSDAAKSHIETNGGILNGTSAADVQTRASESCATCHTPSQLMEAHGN

MtrF = molecular target: T2, MtrF (Shewanella oneidensis, UniProt Q8EG32); assay: PD10 gel-filtration co-elution, flavin fluorescence ([…] nm); conditions: anaerobic, 1 mM reduced glutathione (disulfide reduced), 10 uM FMN, 20 mM HEPES pH 7.6, room temperature
T2 construct: detergent-solubilised form, isolated as in earlier work
T2 sequence (Q8EG32 24-639): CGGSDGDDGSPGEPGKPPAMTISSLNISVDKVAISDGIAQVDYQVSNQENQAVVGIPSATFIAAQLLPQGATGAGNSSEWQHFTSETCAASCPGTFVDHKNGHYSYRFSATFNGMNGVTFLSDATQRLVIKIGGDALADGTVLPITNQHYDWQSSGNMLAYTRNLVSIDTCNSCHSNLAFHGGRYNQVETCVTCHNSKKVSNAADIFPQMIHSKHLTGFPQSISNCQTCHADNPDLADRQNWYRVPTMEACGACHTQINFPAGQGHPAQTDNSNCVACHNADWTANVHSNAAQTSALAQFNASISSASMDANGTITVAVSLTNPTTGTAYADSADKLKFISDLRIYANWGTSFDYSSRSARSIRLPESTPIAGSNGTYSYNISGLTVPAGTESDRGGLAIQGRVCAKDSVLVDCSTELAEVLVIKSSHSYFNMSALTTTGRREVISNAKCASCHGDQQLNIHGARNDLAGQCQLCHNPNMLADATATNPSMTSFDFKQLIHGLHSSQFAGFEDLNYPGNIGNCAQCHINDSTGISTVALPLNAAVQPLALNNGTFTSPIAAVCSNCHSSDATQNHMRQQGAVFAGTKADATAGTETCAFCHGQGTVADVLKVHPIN

MtrC [1] = molecular target: T3, MtrC (Shewanella oneidensis, UniProt Q8EG34); assay: PD10 gel-filtration co-elution, flavin fluorescence and absorbance; fluorescence quenching; conditions: anaerobic, 1 mM reduced glutathione (disulfide reduced), 1 uM MtrC, 10 uM FMN, 20 mM HEPES pH 7.6, room temperature
T3 construct: soluble; pLS146 in S. oneidensis LS329; model residues 45-670
T3 sequence (Q8EG34 26-671): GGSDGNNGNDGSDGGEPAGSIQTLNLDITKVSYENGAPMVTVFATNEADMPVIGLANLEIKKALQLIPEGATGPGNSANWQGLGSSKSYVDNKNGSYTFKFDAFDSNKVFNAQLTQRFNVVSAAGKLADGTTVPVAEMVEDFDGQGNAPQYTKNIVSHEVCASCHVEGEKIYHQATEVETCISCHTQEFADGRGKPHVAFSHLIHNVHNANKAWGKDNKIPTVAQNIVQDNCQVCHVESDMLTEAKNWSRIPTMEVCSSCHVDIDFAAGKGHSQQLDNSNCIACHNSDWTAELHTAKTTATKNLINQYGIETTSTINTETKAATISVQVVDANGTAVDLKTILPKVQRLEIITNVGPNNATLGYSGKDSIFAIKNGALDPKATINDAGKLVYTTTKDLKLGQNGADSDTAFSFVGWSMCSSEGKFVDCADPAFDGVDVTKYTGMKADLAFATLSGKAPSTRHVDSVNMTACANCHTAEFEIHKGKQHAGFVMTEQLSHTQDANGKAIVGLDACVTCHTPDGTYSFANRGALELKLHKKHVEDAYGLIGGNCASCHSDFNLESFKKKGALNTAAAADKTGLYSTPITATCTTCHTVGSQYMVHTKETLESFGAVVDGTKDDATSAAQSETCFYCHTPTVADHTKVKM

UndA = molecular target: T4, UndA (Shewanella sp. HRCR_06, UniProt F8UWD6); assay: PD10 gel-filtration co-elution, flavin fluorescence ([…] nm); conditions: anaerobic, 1 mM reduced glutathione (disulfide reduced), 10 uM FMN, 20 mM HEPES pH 7.6, room temperature
T4 construct: soluble form, isolated as in earlier work
T4 sequence (F8UWD6 27-843): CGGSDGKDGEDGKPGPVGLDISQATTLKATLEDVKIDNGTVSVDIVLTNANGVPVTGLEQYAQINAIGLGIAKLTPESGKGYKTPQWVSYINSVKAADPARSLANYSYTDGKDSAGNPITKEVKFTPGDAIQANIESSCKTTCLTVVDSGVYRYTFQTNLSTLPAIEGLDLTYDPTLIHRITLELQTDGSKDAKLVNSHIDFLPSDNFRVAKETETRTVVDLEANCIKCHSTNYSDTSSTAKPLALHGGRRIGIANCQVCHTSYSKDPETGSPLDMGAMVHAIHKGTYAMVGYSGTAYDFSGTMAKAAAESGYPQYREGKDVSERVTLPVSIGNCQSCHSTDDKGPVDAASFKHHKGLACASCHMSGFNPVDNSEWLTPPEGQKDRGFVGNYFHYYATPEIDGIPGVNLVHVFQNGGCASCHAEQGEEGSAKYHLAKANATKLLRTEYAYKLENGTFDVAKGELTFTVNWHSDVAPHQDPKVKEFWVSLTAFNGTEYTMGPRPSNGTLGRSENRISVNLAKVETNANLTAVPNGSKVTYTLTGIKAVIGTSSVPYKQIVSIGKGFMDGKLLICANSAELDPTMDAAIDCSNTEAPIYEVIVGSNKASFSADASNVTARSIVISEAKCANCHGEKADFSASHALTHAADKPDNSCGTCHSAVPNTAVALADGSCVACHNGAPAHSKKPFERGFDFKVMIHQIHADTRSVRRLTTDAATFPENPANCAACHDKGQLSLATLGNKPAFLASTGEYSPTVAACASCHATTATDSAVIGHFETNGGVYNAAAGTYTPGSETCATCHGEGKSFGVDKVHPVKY

MtrC [2] = molecular target: T3, MtrC; assay: PD10 gel-filtration co-elution, spectroscopy; conditions: anaerobic, reduced glutathione (disulfide reduced), 20 mM HEPES pH 7.6, room temperature

Row | SMILES | PD10 gel-filtration co-elution, flavin fluorescence and absorbance (OmcA) | PD10 gel-filtration co-elution, flavin fluorescence (525 nm) (MtrF) | PD10 gel-filtration co-elution, flavin fluorescence and absorbance; fluorescence (MtrC [1]) | PD10 gel-filtration co-elution, flavin fluorescence (525 nm) (UndA) | PD10 gel-filtration co-elution, spectroscopy (MtrC [2])
1 | Cc1cc2nc3c(=O)[nH]c(=O)nc-3n(C[C@H](O)[C@H](O)[C@H](O)COP(=O)(O)O)c2cc1C [FMN] | Co-elution of FMN and OmcA was observed in the presence, but not the absence, of glutathione | OMMC-FMN interactions were also observed after incubation of MtrF or UndA with FMN | FMN associated specifically with MtrC in the presence of glutathione | OMMC-FMN interactions were also observed after incubation of MtrF or UndA with FMN | 
2 | Cc1cc2nc3c(=O)[nH]c(=O)nc-3n(C[C@H](O)[C@H](O)[C@H](O)CO)c2cc1C [riboflavin] |  |  |  |  | MtrC was also capable of tightly binding a single molecule of riboflavin
